# Organism: Cavia porcellus
# Assay: Inhibition of the bronchospasm induced by histamine in guinea pig at the high concentration/dose.
# Type: functional
# Conditions: not given
row,SMILES,ED50
1,CCOC(=O)c1cn2cc(Br)nc(Br)c2n1,>0.016 µM

# Organism: Cavia porcellus
# Assay: Inhibition of the bronchospasm induced by histamine in guinea pigat the high concentration / dose
# Type: functional
# Conditions: not given
row,SMILES,ED50
1,ClCc1cn2ccncc2n1,>0.072 µM

# Organism: Rattus norvegicus
# Assay: Inhibition of the uterine smooth muscle contraction induced by histamine on the isolated rat uterus
# Type: functional
# Conditions: read-out: ED50 (the source's name)
row,EC50,SMILES
1,0.0016 µM,c1cn2ccnc2cn1

# Organism: Rattus norvegicus
# Assay: Inhibition of the uterine smooth muscle contraction induced by histamine on the isolated rat uterus at high dose
# Type: functional
# Conditions: read-out: ED50 (the source's name)
row,EC50,SMILES
1,> 0.0024 µM,COC(=O)c1cn2ccncc2n1

# Organism: Rattus norvegicus
# Assay: Inhibition of the uterine smooth muscle contraction induced by histamine on the isolated rat uterus at high dose /concentration.
# Type: functional
# Conditions: read-out: ED50 (the source's name)
row,EC50,SMILES
1,0.00033 µM,NC(=O)c1cn2cc(Br)nc(Br)c2n1

# Organism: Rattus norvegicus
# Assay: Inhibition of the uterine smooth muscle contraction induced by histamine on the isolated rat uterus.
# Type: functional
# Conditions: read-out: ED50
row,SMILES,EC50
1,OCc1cn2ccncc2n1,2700 µM
2,CCOC(=O)Cc1cn2cc(Br)nc(Br)c2n1,96 µM
3,CCOC(=O)c1cn2ccncc2n1,1110 µM
4,Cn1c(=O)c2nc[nH]c2n(C)c1=O [THEOPHYLLINE],900 µM
5,NC(=O)c1cn2c(Br)cncc2n1,410 µM
6,Cc1cn2ccncc2n1,750 µM
7,CCOC(=O)c1[nH]c2nccnc2c1C,102 µM
8,CC(=O)c1c(Cl)nc2cnccn12,880 µM
9,ClCc1cn2ccncc2n1,1400 µM
10,NC(=O)c1cn2ccncc2n1,1500 µM

# Next, values leading:
row,EC50,SMILES
1,1020 µM,CCOC(=O)c1cn2c(Br)cncc2n1
2,780 µM,N#Cc1cn2c(Br)cncc2n1
3,240 µM,Brc1cn2ccnc2c(Br)n1
4,152 µM,CCOC(=O)c1c(C)nc2cnccn12
5,1720 µM,O=C(O)c1cn2ccncc2n1
6,150 µM,CCOC(=O)c1cn2cc(Br)nc(Br)c2n1
7,2380 µM,N#Cc1cn2ccncc2n1
8,290 µM,Brc1cncc2nccn12

# Organism: Rattus norvegicus
# Assay: Inhibition of the uterine smooth muscle contraction induced by histamine on the isolated rat uterus at high dose.
# Type: functional
# Conditions: read-out: ED50 (the source's name)
row,EC50,SMILES
1,0.34 nM,Nc1nc2cnccn2c1Br
2,0.09 nM,N#Cc1cn2cc(Br)nc(Br)c2n1
